In patent EP1330254B1, “TREATMENT OF CANCERS BY APLIDINE IN CONJUNCTION WITH CARNITINE OR ACETYLCARNITINE” (priority 2000, dated 2002):
Where two headings read alike, the source gives them in different places. Starred links: 1 amine or outer side, 2 acyl side, 3 side chain; linkers in the order of their positions; H or OH if unused. Positions of bridges follow the written chain, without caps; N, C: chain ends. Non-standard residues stand in square brackets, D forms with d. Residues, ends and D or L forms follow the SMILES beside them. *: point of attachment. X1 = CC[C@H](C)[C@@H](N[*:1])[C@@H](O)CC(=O)O[C@H](C(=O)[C@H](C)C(=O)[*:2])C(C)C; NMeY = CN[C@@H](Cc1ccc(O)cc1)C(=O)O; dNMeL = CN[C@H](CC(C)C)C(=O)O; Pyruvoyl = CC(=O)C(=O)*

Legend:
[1] = test system: Non-small cell lung cancer, breast cancer and melanoma cell lines; conditions: continuous exposure; cited from earlier work
[2] = test system: human cancer xenografts; conditions: cited from earlier work
[3] = Phase I study, 24h continuous infusion every other week: toxicities; format: in vivo, human; conditions: Pat #27, medullary thyroid carcinoma, 6000 µg/m^2 weekly
[4] = test system: cell cycle; conditions: flow cytometric analysis; cited from earlier work
[5] = test system: gastric tumours; conditions: 1.25 mg/kg; cited from earlier work
[6] = test system: HT-29; conditions: HT-29 human colon cancer cell line; cited from earlier work
[7] = Phase I study, 24h continuous infusion every other week: pharmacokinetics; format: in vivo, human; conditions: for half-life: human, iv
Description: (§1) A phase I and pharmacokinetic study of aplidine, given as a 24h continuous infusion every other week in patients with solid tumours and non-Hodgkin lymphoma

[8] = target: T1, ornithine decarboxylase (Homo sapiens, UniProt P11926); conditions: all three cell lines CT-1, CT-2, HT-29; cited from earlier work
T1 construct: endogenous in cells; host or cells: CT-1, CT-2 and HT-29 colon cell lines
T1 sequence (P11926 whole entry): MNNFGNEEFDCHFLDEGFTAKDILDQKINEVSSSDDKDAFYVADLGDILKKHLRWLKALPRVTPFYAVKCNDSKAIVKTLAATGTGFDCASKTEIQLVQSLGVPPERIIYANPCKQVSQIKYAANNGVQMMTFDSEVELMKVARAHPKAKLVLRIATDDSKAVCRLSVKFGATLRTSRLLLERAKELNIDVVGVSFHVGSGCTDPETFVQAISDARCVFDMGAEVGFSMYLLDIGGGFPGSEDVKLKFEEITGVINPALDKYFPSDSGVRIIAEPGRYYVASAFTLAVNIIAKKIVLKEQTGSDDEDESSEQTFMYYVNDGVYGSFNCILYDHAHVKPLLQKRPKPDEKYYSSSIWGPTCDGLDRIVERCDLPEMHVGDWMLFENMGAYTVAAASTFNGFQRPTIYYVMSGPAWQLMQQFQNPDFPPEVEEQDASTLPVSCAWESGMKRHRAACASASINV

[9] = test system: MDA-MB231 and MCF-7; conditions: treated breast cancer cells; cited from earlier work
[10] = Phase I studies: features of aplidine myotoxicity; format: in vivo, human
Text: The presentation is variable among patients. Mild cases have muscle cramps (at doses from 3200 mcg/m2 every 2 weeks), while in more severe cases the symptoms are associated to reversible increases in creatin-kinase (CK) reaching up to grade 3. In the dose-limiting cases there is weakness of proximal distribution. The effect has a delayed onset, appearing after 3 to 8 (median 4) infusions of the drug.

[11] = Phase I dosing regimes with and without carnitine (MTD, DLT, RD); format: in vivo, human; design: recommended dose, RD: unit not given here
Text: The Recommended Dose (RD) is the highest dose which can be safely administered to a patient producing tolerable, manageable and reversibly toxicity according to the Common Toxicity Criteria established by the National Cancer Institute, (USA) with no more than 2 out of 6 patients presenting any dose limiting toxicities (DLT). Guidelines for cancer therapy frequently call for administration of chemotherapeutic agents at the highest safe dose at which toxicity is manageable in order to achieve maximum efficacy (DeVita, V.T. Jr., Hellman, S. and Rosenberg, S.A., Cancer: Principles and Practice of Oncology, 3rd ed., 1989, Lipincott, Philadelphia).
DLTs for aplidine using this method of treatment were determined in clinical studies. These studies established a recommended dose level for differing kinds of dosing protocols.

[12] = stability of aplidine solution and lyophilised formulation; format: physicochemical; conditions: solubilised aplidine, heat and light stress testing conditions
Description: In a currently preferred embodiment freeze-drying was performed from a 500 mg/mL solution of aplidine in 40% (v/v) tert-butanol in Water for Injection (WfI) containing 25 mg/mL D-mannitol as bulking agent.

[13] = test system: MCF-7; conditions: aplidine 50 nmol/L; cited from earlier work
[14] = test system: CT-1; conditions: CT-1 epithelial-like cell line; cited from earlier work
[15] = test system: P388 leukaemia; conditions: mice; cited from earlier work
[16] = test system: lewis lung carcinomas; conditions: cited from earlier work
[17] = test system: VEGF protein; experiment: VEGF production by tumour cells; format: cell-based
[18] = test system: human bladder cancer; experiment: bladder cancer animal models; format: in vivo
[19] = test system: MDA-MB231; conditions: aplidine 50 nmol/L; cited from earlier work
[20] = test system: solid tumours and non-Hodgkin lymphoma; experiment: Phase I study, 24h continuous infusion every other week: antitumour activity; format: in vivo, human; conditions: patients
Description: as §1

[21] = test system: gene (FLT1) encoding the receptor of the Vascular Endothelial Growth Factor (VEGF); experiment: inhibition of gene expression; format: cell-based
[22] = test system: prostate tumour; conditions: 1.25 mg/kg, prostate tumour growth inhibition; cited from earlier work
[23] = test system: CT-2; conditions: CT-2 epithelial-like cell line; cited from earlier work
[24] = L-carnitine as myoprotector in aplidine patients (study APL-A-003-98); format: in vivo, human; conditions: every second week, 24-hour infusion, with L-carnitine 4.5 g/day or 0.1mg/kg
Description: More generally, the invention involves the use of a muscle protector in conjunction with aplidine therapy. We have found in particular that carnitine is beneficial in treating myotoxicity that is associated with chemotherapy with the experimental drug aplidine. […] When L-carnitine 4.5 g/day was added to the therapy (at doses of 1.5 g three times daily), or […] (at doses of […] 3 times daily) patients were able to tolerate doses of aplidine up to 6000 mcg/m 2 every second week. […] Therefore, muscle protectors such as L-carnitine is a useful myoprotector for patients being treated with aplidine or an aplidine analogue.
L-carnitine at a dose of 1.5 grams 3 times per day or 0.033 g/kg 3 times per day was started in all patients of study APL-A-003-98.
The dose may be decreased to manage the above effects.

[25] = test system: B16 melanoma; conditions: mice; cited from earlier work
[26] = 24 hour infusion every 2 weeks, L-carnitine daily
[27] = weekly 1 hour infusion for 3 weeks, 1 week rest
[28] = weekly 24 hour infusion for 3 weeks, 1 week rest

SMILES: CC[C@H](C)[C@H]1NC(=O)[C@@H](NC(=O)[C@@H](CC(C)C)N(C)C(=O)[C@@H]2CCCN2C(=O)C(C)=O)[C@@H](C)OC(=O)[C@H](Cc2ccc(OC)cc2)N(C)C(=O)[C@@H]2CCCN2C(=O)[C@H](CC(C)C)NC(=O)[C@@H](C)C(=O)[C@H](C(C)C)OC(=O)C[C@@H]1O [aplidine, Dehydrodidemnin B] (Pyruvoyl-P[dNMeL]T[X1]LP[NMeY](Me); ester 3-C)
- concentrations at which cell lines were sensitive [1]: >= 0.001 micromol/L
- treated/control (T/C) tumour ratio ([2]; 2.1 mg/kg, near complete remissions in some animals): 9%
- maximum tolerated dose ([2]; mice bearing human cancer xenografts): 2.1 mg/kg
- muscular toxicity (DLT) [3]: symptomatic G3 CPK with G2 muscular pain
- cell cycle perturbations [4]: did not induce any apparent cell cycle periubations
- T/C [5]: 14%
- cytotoxic activity [6]: dose-dependent cytotoxic activity
- half-life ([7]; in vivo, the 3 patients with clear muscular toxicity, read-out: t ½): > 44 h
- half-life ([7]; plasma, preliminary compartmental analysis, 24 h infusion, read-out: median half-life, longer terminal phase (converted)): 25.8 h
- half-life ([7]; plasma, preliminary compartmental analysis, first-order 2-compartment model, read-out: median half-life, rapid initial phase (converted)): 0.64 h
- half-life ([7]; plasma, quartiles 15.7-35.0, read-out: t ½, median (converted)): 23.8 h
- PK profile ([7]; within the constraints of the low sample size): dose-linear
- ornithine decarboxylase activity [8]: decreased
- spermidine and spermine [9]: significant increase
- delayed onset of myotoxicity, infusions of the drug, median ([10]; median): 4 infusions
- reversible increases in creatin-kinase (CK) ([10]; more severe cases): ≤ 3 grade
- light microscopy of muscle ([10]; most biopsied patients): just minimal necrosis or no changes at all
- dose-limiting toxicity ([11]; 1-hour infusion for 5 consecutive days every 3 weeks): Muscular/long lasting emesis
- dose-limiting toxicity ([11]; 24 hour infusion every 2 weeks): Muscular
- recommended dose, RD ([11]; 24 hour infusion every 2 weeks): 5000
- dose-limiting toxicity [11, 26]: Flu-like syndrome
- recommended dose, RD [11, 26]: 7000
- dose-limiting toxicity [11, 27]: Muscular
- recommended dose, RD [11, 27]: 3250
- dose-limiting toxicity [11, 28]: Muscular/ hepatic
- recommended dose, RD [11, 28]: 3750
- RD ([11]; with L-carnitine 0.1 g/kg /day, for Phase II studies): 7 mg/m^2
- degradation [12]: substantial degradation
- inhibited the growth [13]: 47%
- cytotoxic activity [14]: dose-dependent cytotoxic activity
- activity against implanted tumour [15]: active
- optimal dose [15]: 160 micrograms/kg
- activity in SC implanted lewis lung carcinomas [16]: active
- production of the VEGF protein [17]: severely inhibit production
- activity on human bladder cancer [18]: exceedingly high activity
- inhibited the growth [19]: 17%
- antitumour activity [20]: noted in patients with NHL and renal carcinoma
- expression of the gene (FLT1) [21]: inhibits expression
- T/C [22]: 25%
- cytotoxic activity [23]: dose-dependent cytotoxic activity
- doses of aplidine patients were able to tolerate [24]: up to 6000 mcg/m 2
- activity against implanted tumour [25]: active
- optimal dose [25]: 160 micrograms/kg
